In patent publication US8377934B2, “Use of stilbene derivatives for treatment and prevention of aquatic mold infections” (State of Israel, Ministry of Agriculture & Rural …, priority 2006, dated 2013):

Legend:
[1] = tested on: Gyrodactilus sp. and Trichodina sp.; test: Non-randomized field trial in a cement pond, concurrent parasitic disease; format: in vivo, hybrid tilapia; conditions: 50 mg/L, 3 treatments of 8 h at 48 h intervals; 2 days after end
Method: (§1) Following transfer of 2000 hybrid tilapia fish (20-30 g) to a cement pond (1×10^5 L, 21 to 25° C.), white patches of filamentous mycelium were observed on the body and fins of fish, covering in most cases about 80% of the body surface. The mycelia appeared about four days after the transfer, presumably due to opportunistic infection by Saprolegnia sp. following handling stress. Death of 20 to 30 fish per day was recorded. All the dead fish were covered with mycelium, characteristic of Saprolegnia sp., and were also found to be infected with the parasites Gyrodactilus sp. and Trichodina sp.
(§2) The water capacity in the pond was decreased to 3×10^4 L, and treatment with Blankophor® BA (50 mg/L) was initiated. A regimen of 3 treatments (8 h each) with 48 hours intervals between them was used.

S. parasitica = test: Tilapia-saprolegniosis established infection model; format: in vivo; conditions: 50 and 100 mg/L on 3rd and 8th day
Method: Tilapia were exposed to S. parasitica and treated with Blankophor® BA (100, 50 and 25 mg/L), as described in Example 4, with the exception that Blankophor® BA treatment was started on the 3rd day after initiation of the infection, and repeated on the 8th day. By the starting point of the Blankophor® BA treatment, approximately 50% of the fish had established infection, as indicated by the presence of white skin lesions and a mortality rate of approximately 30%.

ICR mice = test: Intravenous maximal tolerated dose in mice; format: in vivo; conditions: male ICR mice
Method: Blankophor® BA was prepared at various concentrations in 5% dextrose and filter sterilized by passage through a sterile 0.2 μm pore size cellulose acetate filter (Schleicher & Schuell, Dassel, Germany). Male albino ICR mice (weight 30 g) were injected through the tail vein with various doses of Blankophor® BA. Each dosage form was administered intravenously as single bolus injection of 0.1 ml of the same dose every 10 min to a group of 10 mice until death was observed. The survival of mice that received the maximal tolerated dose (MTD) was monitored for 8 days.

Microcystis = test: Delayed Fluorescent Excitation Spectroscopy (DFES) of pure algal culture; format: cell-based, Microcystis sp.; conditions: 100 mg/L
Description: The Delayed Fluorescent Excitation Spectroscopy (DFES) method was used for qualitative and quantitative assessment of the influence of Blankophor® BA on the natural population of phytoplankton, and on specific algae strains. Delayed fluorescence is a unique characteristic of photosynthetically active cells, as it is an outcome of recombination that takes place in the thylakoids in the dark (Yacobi Y. Z., V. Gerhardt, Y. Gonen-Zurgil, and A. Sukenik. 1998. Delayed fluorescence excitation spectroscopy: a rapid method for the qualitative and quantitative assessment of natural population of phytoplankton. Wat. Res. 00:1-6).
Samples from Lake Kinneret and pure cultures of Peridinium sp. and Microcystis sp. were exposed to Blankophor® BA (100 mg/L), for a few minutes and the concentration of chlorophyll-a was determined (in duplicate) according to the excitation spectrum examined (range from 400 to 730 nm). In addition, the exposed and non-exposed samples were assessed for carbon uptake with a ^14C technique.

Saprolegnia sp. = test: Non-randomized field trial in a cement pond, oomycete disease; format: in vivo, hybrid tilapia; conditions: 50 mg/L
Method: as §1, §2

O=S(=O)([O-])c1cc(Nc2nc(Nc3ccccc3)nc(N(CCO)CCO)n2)ccc1C=Cc1ccc(Nc2nc(Nc3ccccc3)nc(N(CCO)CCO)n2)cc1S(=O)(=O)[O-].[K+].[Na+] [Blankophor® BA]
presence of parasites on visual and microscopic examination [1]: free of
efficacy in promoting survival of infected fish (S. parasitica): highly effective
maximal tolerated dose (MTD) (ICR mice): > 1000 mg/kg
photosynthetic activity versus non-treated samples (Microcystis): no difference
presence of Saprolegnia sp. on visual and microscopic examination (Saprolegnia sp.; 3 treatments of 8 h at 48 h intervals, 2 days after end): free of
deaths recorded (Saprolegnia sp.; after the first 8 h treatment): no further deaths
prevalence and intensity of saprolegniosis (Saprolegnia sp.; after the first 8 h treatment): Significant reduction
